# In US20210345656A1, “HIGH NICOTINE ABSORPTION” (Fertin Pharma A/S, priority 2017, published 2021):
# Settings: nicotine concentration increased from 100 microgram/mL to 14,000 microgram/mL
structure (smiles),measurement,value
CN1CCCC1c1cccnc1 (stereo not shown) [nicotine],Change of permeability of nicotine across the buccal mucosa,decrease of about a factor of two
